Test results as given in patent US7115597B2, “Tyrosine kinase inhibitors” (Merck & Co., Inc., priority 2000, dated 2006).
Where a name gives a salt, the structure may show the parent alone.

Row | melting point | SMILES
1 | 285 to 287 °C (dec.) | N#Cc1cnc(Nc2cc(N3CCN(CC(=O)O)CC3)ncn2)s1 (as salt: TFA) [Compound 26-3, (4-{6-[(5-cyano-1,3-thiazol-2-yl)amino]pyrimidin-4-yl}piperazin-1-yl)acetic acid]
2 | > 250 °C | c1ccc(-c2cnc(Nc3ccncn3)s2)cc1 [Compound 1-3, (5-Phenyl-thiazol-2-yl)-pyrimidin-4-yl-amine]
